In patent EP4514928B1, “USE OF AN ANTIOXIDANT FOR REDUCING AND/OR PREVENTING THE TOXICITY OF A LUBRICANT COMPOSITION” (priority 2022, dated 2023):

Legend:
vie aquatique = conditions: long-term effects; cited from earlier work
Planaires adultes entier = conditions: adult planarians, 12 days, checks at 7 and 12 days, 0,22 mg/L - 22 mg/L; for Concentration à partir de laquelle une mortalité significative du planaire est observée: according to Zhang et al. 2019; for Concentration à partir de laquelle sont observés des troubles du comportement potentiellement liés à des troubles cognitifs du planaire: adhérence, vitesse de déplacement, repos, phototaxie, scrunching
Protocol: La méthodologie utilisée est la suivante Tous les composés sont fournis sous forme de poudres. Un volume approprié de DMSO 100 % (Sigma) a été ajouté, comme indiqué sur les tubes, pour obtenir une solution mère à 4,4 mg/ml (soit 200 fois plus concentrée que la concentration maximale de test).

[1] = cited from earlier work

Row | Compound | Toxicité (Informations ECHA - 2021): vie aquatique (écotoxique) (vie aquatique) | Concentration à partir de laquelle une mortalité significative du planaire est observée (Planaires adultes entier) | Concentration à partir de laquelle sont observés des troubles du comportement potentiellement liés à des troubles cognitifs du planaire (Planaires adultes entier) | Toxicité (Informations ECHA - 2021): toxicité aiguë ([1]; if swallowed) | Toxicité (Informations ECHA - 2021): dommages aux organes ([1]; prolonged or repeated exposure)
1 | c1ccc(Nc2cccc3ccccc23)cc1 [compound 19, N-phénylnaphthalène-1-amine] | Est très toxique pour la vie aquatique avec des effets à long terme (écotoxique) | 6,9 mg/L | 2,2 -3,9 mg/L | est nocif s'il est avalé (toxicité aiguë) | peut causer des dommages aux organes par exposition prolongée ou répétée
2 | CC(C)CC(C)Nc1ccc(Nc2ccccc2)cc1 (centres unmarked) [compound 22, N-(1,3-Diméthylbutyl)-N'-phényl-p-phénylènediamine] | – | 4,8 mg/L | 1,5 mg/L | – | –
3 | Bis(nonylphényl)amine [Irganox® L67] | Est nocif pour la vie aquatique avec des effets à long terme (écotoxique) https://echa.europa.eu/fr/substance-information/-/substanceinfo/100.048.393 Evaluation en 2021 pour suspicion de Mutagénicité et PBT | – | – | – | –
